Source: ChEMBL document CHEMBL1145738, “Peptidyl aldehyde inhibitors of calpain incorporating P2-proline mimetics” (Bioorg Med Chem Lett, 2003)
Non-standard residues stand in square brackets, D forms with d. Residues, ends and D or L forms follow the SMILES beside them. ξ: configuration not given here. *: point of attachment. Tos = Cc1ccc(S(=O)(=O)*)cc1; ξF = NC(Cc1ccccc1)C(=O)O; Pip = O=C(O)[CH]1CCCCN1; Aze = O=C(O)[CH]1CCN1

Assays:
Calpain small subunit 1 [1] = target: T1, Calpain small subunit 1 (Sus scrofa, UniProt P04574); test: Compound tested for inhibition of porcine Calpain 1
T1 sequence (P04574 whole entry): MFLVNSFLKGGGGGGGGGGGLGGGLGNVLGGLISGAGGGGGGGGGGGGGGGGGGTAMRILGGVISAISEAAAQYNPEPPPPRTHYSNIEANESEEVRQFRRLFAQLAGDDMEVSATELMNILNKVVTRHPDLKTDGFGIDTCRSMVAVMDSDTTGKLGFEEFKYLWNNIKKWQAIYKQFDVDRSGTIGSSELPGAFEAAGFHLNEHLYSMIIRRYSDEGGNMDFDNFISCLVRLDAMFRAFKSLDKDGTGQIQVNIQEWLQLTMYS

Cathepsin B [2] = target: T2, Cathepsin B (Homo sapiens, UniProt P07858); test: (§1) Selectivity ratio of cathepsin B to calpain I
Cathepsin B [3] = target: T2, Cathepsin B; test: Compound tested for inhibition of human liver cathepsin B
Calpain small subunit 1 [4] = target: T1, Calpain small subunit 1; test: Compound tested for inhibition of porcine calpain I
[5] = as §1
Cathepsin B [6] = target: T2, Cathepsin B; test: Compound tested for inhibition of human liver Cathepsin B

| Compound | Ki (Calpain small subunit 1 [1]) [nM] | Selectivity ratio (Cathepsin B [2]) | Ki (Cathepsin B [3]) [nM] | Ki (Calpain small subunit 1 [4]) [nM] | Selectivity ratio [5] | Ki (Cathepsin B [6]) [nM] |
| --- | --- | --- | --- | --- | --- | --- |
| Cc1ccc(S(=O)(=O)N2CCSC2C(=O)NC(C=O)Cc2ccccc2)cc1 (stereo not drawn) | 70 |  |  |  |  |  |
| Cc1ccc(S(=O)(=O)N2CCCCC2C(=O)NC(C=O)Cc2ccccc2)cc1 (stereo not drawn) (Tos-[Pip]-Phe-aldehyde; configuration not given here) |  | 10 | 5260 | 540 |  |  |
| Cc1ccc(S(=O)(=O)N2CCCC2C(=O)NC(C=O)Cc2ccccc2)cc1 (stereo not drawn) (Tos-Pro-Phe-aldehyde; configuration not given here) | 80 |  |  |  | 151 | 12100 |
| Cc1ccc(S(=O)(=O)N2CCC2C(=O)NC(C=O)Cc2ccccc2)cc1 (stereo not drawn) (Tos-[Aze]-Phe-aldehyde; configuration not given here) | 250 |  |  |  | 11 | 2750 |
| Cc1ccc(S(=O)(=O)N[C@@H](CC(C)C)C(=O)NC(C=O)Cc2ccccc2)cc1 (stereo partly drawn) (Tos-Leu-[ξF]-aldehyde) |  | 4 | 70 | 20 |  |  |
